# Values of other authors in US20160081915A1, “TRANSDERMAL FORMULATIONS OF FLUTICASONE” (STRATEGIC SCIENCE & TECHNOLOGIES, LLC, priority 2013, published 2016).
# Conditions: oral; extensive first-pass metabolism in the liver
structure (smiles),measurement,value
C[C@@H]1C[C@H]2[C@@H]3C[C@H](F)C4=CC(=O)C=C[C@]4(C)[C@@]3(F)[C@@H](O)C[C@]2(C)[C@@]1(O)C(=O)SCF [fluticasone],half-life when delivered orally,about 7.8 hours
